Assays:
Details in all cases: 48 h
[1] = test system: CU-ACC1; test: AC50 viability; higher = less potent
Outline: (§1)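 AC50 and area under the curve values derive from fitted concentration-response curves, restricted to inhibitory or non-responding curve classes. The curves came from three adrenocortical carcinoma cell lines in 1,536-well plates, each receiving 23 nL of every library compound at 11 concentrations. Viability was read by CellTiter-Glo luminescence after 48 h, normalised per plate to vehicle and empty-well controls.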

[2] = test system: NCI-H295R; test: AC50 viability; higher = less potent
Outline: as §1

[3] = test system: CU-ACC2; test: AC50 viability; higher = less potent
Outline: as §1

[4] = test system: CU-ACC1; test: area under concentration-response curve (viability) (AUC (a.u.)); higher = less active
Outline: as §1

[5] = test system: NCI-H295R; test: as above
Outline: as §1

[6] = test system: CU-ACC2; test: as above
Outline: as §1

Compound	AC50 viability [1]	AC50 viability [2]	AC50 viability [3]	area under concentration-response curve [4]	area under concentration-response curve [5]	area under concentration-response curve [6]
COC[C@H](NC(=O)c1cnc(C)s1)C(=O)N[C@@H](COC)C(=O)N[C@@H](Cc1ccccc1)C(=O)[C@@]1(C)CO1	0.166 µM	0.0661 µM	0.0833 µM	220	276	255
CNCCn1c(=O)c2cc(OC)c(OC)cc2c2cnc3cc4c(cc3c21)OCO4	0.0959 µM	0.152 µM	0.135 µM	422	553	537
C[C@@H]1CN[C@H]2[C@@H](C)[C@@]3(CC[C@H]4[C@@H]5CC[C@@H]6C[C@@H](CC[C@]6(C)[C@H]5C\C4=C(C)\C3)N[S+](C)([O-])=O)O[C@@H]2C1	16.6 µM	14.8 µM	20.9 µM	467	504	539
Cc1cc(Nc2ncc3c(n2)N(C)C(=O)N(c2cc(NC(=O)c4cccc(C(F)(F)F)c4)ccc2C)C3)n(C)n1	11.8 µM	7.42 µM	2.63 µM	468	512	483
COCCOC(=O)N1CCN([S+](=O)([O-])c2cc(F)c(Oc3ccc(Cl)cc3)c(F)c2)C(C(=O)NO)C1 (stereo not given)	13.2 µM	20.9 µM	10.5 µM	471	507	428
CC(C)(O)c1cc2nc(-c3cnc(N)nc3)nc(N3CCOCC3)c2s1	1.32 µM	1.05 µM	2.63 µM	434	423	379
CCN(CC)Cc1ccc2cc(COC(=O)Nc3ccc(C(=O)NO)cc3)ccc2c1	3.72 µM	9.34 µM	4.68 µM	365	382	390
C1=CC2=N/C(=N\c3ccc(OCCN4CCCC4)c(c3)COC/C=C/COCc3cccc2c3)N1	3.72 µM	4.17 µM	2.63 µM	387	387	436
C=CC(=O)Nc1cccc(Sc2nc(Nc3ccc(N4CCN(C)CC4)cc3)ncc2Cl)c1	4.68 µM	4.68 µM	4.17 µM	342	375	388
Cc1cnc(Nc2ccc(CN3CCOCC3)cc2)nc1Nc1cccc([S+](=O)([O-])NC(C)(C)C)c1	20.9 µM	9.34 µM	11.8 µM	445	492	509
O=C(/C=C/C#Cc1cccc(N[S+](=O)([O-])c2ccccc2)c1)NO	4.07 µM	4.56 µM	6.45 µM	497	542	544
CCN(CC)CCNC(=O)c1c(C)[nH]c(/C=C2/C(=O)Nc3ccc(-c4csc(-c5ccccc5)n4)cc32)c1C	13.2 µM	7.42 µM	9.34 µM	369	453	521
CN[S+](=O)([O-])c1ccc2c(c1)/C(=C/c1[nH]c3c(c1CCCN1CCN(C)CC1)CCCC3)C(=O)N2	23.5 µM	16.6 µM	16.6 µM	440	458	504
CNCc1ccc(C)c(NC(=O)c2ccc(Nc3nc(-c4ccccc4)c4ccccc4n3)cc2)c1	16.6 µM	18.6 µM	23.5 µM	471	521	575
Clc1ccc(C2(c3ccc(-c4cn[nH]c4)cc3)CCNCC2)cc1	18.6 µM	18.6 µM	23.5 µM	419	399	423
C[C@@H]1COCCN1c1cc(-c2ccnn2C)c2ccnc(-c3ccn[nH]3)c2n1	0.742 µM	1.32 µM	6.61 µM	388	415	399
C[N]1N=C(C)C2=C1OC(=C(/C#N)C2C3=CC=C(C=C3)C(F)(F)F)/N (stereo not given)	18.6 µM	18.6 µM	18.6 µM	460	479	422
Cc1ccc(C(N)=O)cc1Nc1nccc(-c2cn(C(C)C)c3cnccc23)n1	20.9 µM	16.6 µM	8.33 µM	446	522	530
CC(C)(O)/C=C\C(=O)[C@](C)(O)[C@H]1[C@H](O)C[C@]2(C)[C@@H]3CC=C4[C@@H](C=C(O)C(=O)C4(C)C)[C@]3(C)C(=O)C[C@@]12C	0.372 µM	5.25 µM	0.332 µM	316	406	377
CC(C)c1cnn2c(NCc3ccccc3)cc(N[C@@H](CO)[C@H](O)CO)nc12	0.372 µM	1.48 µM	0.295 µM	372	395	326

Compound	AC50 viability [1]	AC50 viability [2]	AC50 viability [3]	area under concentration-response curve [4]	area under concentration-response curve [5]	area under concentration-response curve [6]
Nc1ccccc1NC(=O)c1ccc(CNc2nccc(-c3cccnc3)n2)cc1	2.09 µM	2.35 µM	5.25 µM	309	339	445
CCc1cc(-c2n[nH]c(C)c2-c2ccc3c(c2)OCCO3)c(O)cc1O	23.5 µM	20.9 µM	23.5 µM	529	565	611
COC(=O)c1ccc2c(c1)NC(=O)/C2=C(\Nc1ccc(N(C)C(=O)CN2CCN(C)CC2)cc1)c1ccccc1	20.9 µM	8.33 µM	7.42 µM	504	483	528
NC1(CCC1)C2=CC=C(C=C2)C3=C(C=C/4C(=N3)\C=C/N5C(=O)N\N=C45)C6=CC=CC=C6	9.34 µM	16.6 µM	18.6 µM	442	404	523
Cc1ccc(NC(=O)c2ccc3c(c2)OCCO3)cc1NC(=O)c1ccc2nc(OCCN3CCCC3)ccc2c1	6.45 µM	2.88 µM	0.456 µM	303	398	373
COc1ccc(N2C(=O)N(c3c(C)cccc3Cl)Cc3cnc(Nc4ccc(C5CCN(C)CC5)cc4OC)nc32)nc1	18.6 µM	14.8 µM	18.6 µM	451	490	511
Cc1cccc(Nc2nc(N[C@@H]3CCCC[C@@H]3N)ncc2C(N)=O)c1	26.3 µM	18.6 µM	26.3 µM	476	496	546
CNC(=O)c1cc(COc2nnc(Nc3ccc(Cl)cc3)c3ccoc23)ccn1	1.86 µM	5.25 µM	8.33 µM	419	423	462
CN(C)CCOc1ccc(-c2nc(-c3ccncc3)c(-c3ccc4c(c3)CC/C4=N\O)[nH]2)cc1	16.6 µM	14.8 µM	20.9 µM	398	440	521
Nc1cc(C(F)(F)F)c(-c2cc(N3CCOCC3)nc(N3CCOCC3)n2)cn1	9.34 µM	2.63 µM	4.68 µM	400	449	539
CC[C@@H]1C(=O)N(C)c2cnc(Nc3ccc(C(=O)NC4CCN(C)CC4)cc3OC)nc2N1C1CCCC1	20.9 µM	16.6 µM	16.6 µM	412	404	461
CNC(=O)c1ccccc1Nc1nc(Nc2ccc(N3CCOCC3)cc2OC)ncc1Cl	16.6 µM	0.525 µM	4.17 µM	435	452	483
CN(C)C[C@@H]1CC[N]2C=C(C3=C2C=CC=C3)C/4=C(/C(=O)NC4=O)C5=C[N](CCO1)C6=C5C=CC=C6	14.8 µM	7.42 µM	8.33 µM	292	368	389
N/C(=N\C(=O)c1nc(Cl)c(N)nc1N)NCc1ccccc1	10.5 µM	11.8 µM	8.33 µM	322	396	370
CC(C)(Cc1ccc2ccccc2c1)NC[C@@H](O)COc1cccc(Cl)c1C#N	9.34 µM	9.34 µM	7.42 µM	460	480	530
COc1ccc2c(c[n+](C)c3c4cc5c(cc4ccc23)OCO5)c1OC	20.9 µM	20.9 µM	33.2 µM	445	402	465
O=C(/C=C/c1ccc2ccc(C(F)(F)F)cc2n1)c1ccncc1	3.72 µM	3.72 µM	2.95 µM	365	402	439
CO[C@H]1/C=C\C=C(\C)C(=O)NC2=CC(=O)C(NCCN(C)C)=C(C[C@@H](C)C[C@H](OC)[C@H](O)[C@@H](C)/C=C(/C)[C@@H]1OC(N)=O)C2=O	1.66 µM	3.72 µM	0.833 µM	335	451	460
C=C1CCC2[C@](C)(CO)C(O)CC[C@]2(C)C1C/C=C1/C(=O)OCC1O (stereo not given in full)	18.6 µM	20.9 µM	11.8 µM	472	445	504
COCCNCCc1cccc(Nc2ncc3c(n2)-c2ccccc2[C@H](c2ccccc2F)C3)c1	11.8 µM	8.33 µM	26.3 µM	496	467	502

Reference: the supplement of paper PMC10949913
